In patent US7514448B2, “Azaindoles useful as inhibitors of rock and other protein kinases” (Vertex Pharmaceuticals Incorporated, priority 2004, dated 2009):
Read-outs that look alike come from different tables or passages of the source.

How the values were obtained:
Format in all cases: biochemical
ROCK I (AA 6-553) = ROCK I (AA 6-553) (Homo sapiens, UniProt Q13464); assay: ROCK inhibition assay, coupled enzyme system ("Enzyme"); details: enzyme-linked assay; average Ki if more than one determined
Procedure: Reactions were carried out in a solution containing 100 mM HEPES (pH 7.5), 10 mM MgCl2, 25 mM NaCl, 2 mM DTT and 1.5% DMSO.
(§1) If more than one value of Ki has been determined, the average Ki is indicated. If no value is indicated, then the Ki was not determined.

PKA = PKA (Homo sapiens, UniProt P17612); assay: PKA inhibition assay, coupled enzyme; details: average Ki if more than one determined
Procedure: Compounds were screened for their ability to inhibit PKA using a standard coupled enzyme assay (Fox et al., Protein Sci, 1998, 7, 2249). Assays were carried out in a mixture of 100 mM HEPES (pH 7.5), 10 mM MgCl2, 25 mM NaCl, 1 mM DTT and 3% DMSO. Final substrate concentrations in the assay were 50 μM ATP (Sigma Chemicals) and 80 μM peptide (Kemptide, American Peptide, Sunnyvale, Calif.). Assays were carried out at 30° C. and 18 nM PKA. Final concentrations of the components of the coupled enzyme system were 2.5 mM phosphoenolpyruvate, 300 μM NADH, 30 μg/ml pyruvate kinase and 10 μg/ml lactate dehydrogenase.
An assay stock buffer solution was prepared containing all of the reagents listed above, with the exception of ATP, and the test compound of the present invention. […] The plate was preincubated for 10 minutes at 30° C. and the reaction initiated by addition of 5 μl of ATP (final concentration 50 μM). Initial reaction rates were determined with a Molecular Devices SpectraMax Plus plate reader over a 15 minute time course. IC50 and Ki data were calculated from non-linear regression analysis using the Prism software package (GraphPad Prism version 3.0a for Macintosh, GraphPad Software, San Diego Calif., USA).

ROCK = ROCK (Homo sapiens, UniProt Q13464); assay: ROCK radioactive assay ("33P")
Description: as §1

[1] = radioactive assay, average Ki if more than one determined, read-out: ROCK 33P Ki

Chain of ROCK I (AA 6-553) (Q13464 6-553, species assumed): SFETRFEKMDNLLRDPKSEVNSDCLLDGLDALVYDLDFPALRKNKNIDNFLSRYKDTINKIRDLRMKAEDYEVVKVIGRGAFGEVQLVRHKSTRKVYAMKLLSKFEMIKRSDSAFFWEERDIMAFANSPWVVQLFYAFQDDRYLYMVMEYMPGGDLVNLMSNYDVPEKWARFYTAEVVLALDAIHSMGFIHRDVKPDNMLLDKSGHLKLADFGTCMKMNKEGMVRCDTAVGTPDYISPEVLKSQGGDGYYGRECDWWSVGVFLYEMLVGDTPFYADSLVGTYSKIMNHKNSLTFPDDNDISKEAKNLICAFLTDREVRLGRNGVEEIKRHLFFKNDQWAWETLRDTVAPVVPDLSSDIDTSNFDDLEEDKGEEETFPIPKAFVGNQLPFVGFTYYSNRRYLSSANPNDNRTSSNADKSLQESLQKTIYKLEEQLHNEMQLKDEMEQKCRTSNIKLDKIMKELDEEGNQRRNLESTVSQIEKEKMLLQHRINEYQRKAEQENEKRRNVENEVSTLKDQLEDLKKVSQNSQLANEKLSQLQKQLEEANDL
Chain of ROCK (Q13464 whole entry): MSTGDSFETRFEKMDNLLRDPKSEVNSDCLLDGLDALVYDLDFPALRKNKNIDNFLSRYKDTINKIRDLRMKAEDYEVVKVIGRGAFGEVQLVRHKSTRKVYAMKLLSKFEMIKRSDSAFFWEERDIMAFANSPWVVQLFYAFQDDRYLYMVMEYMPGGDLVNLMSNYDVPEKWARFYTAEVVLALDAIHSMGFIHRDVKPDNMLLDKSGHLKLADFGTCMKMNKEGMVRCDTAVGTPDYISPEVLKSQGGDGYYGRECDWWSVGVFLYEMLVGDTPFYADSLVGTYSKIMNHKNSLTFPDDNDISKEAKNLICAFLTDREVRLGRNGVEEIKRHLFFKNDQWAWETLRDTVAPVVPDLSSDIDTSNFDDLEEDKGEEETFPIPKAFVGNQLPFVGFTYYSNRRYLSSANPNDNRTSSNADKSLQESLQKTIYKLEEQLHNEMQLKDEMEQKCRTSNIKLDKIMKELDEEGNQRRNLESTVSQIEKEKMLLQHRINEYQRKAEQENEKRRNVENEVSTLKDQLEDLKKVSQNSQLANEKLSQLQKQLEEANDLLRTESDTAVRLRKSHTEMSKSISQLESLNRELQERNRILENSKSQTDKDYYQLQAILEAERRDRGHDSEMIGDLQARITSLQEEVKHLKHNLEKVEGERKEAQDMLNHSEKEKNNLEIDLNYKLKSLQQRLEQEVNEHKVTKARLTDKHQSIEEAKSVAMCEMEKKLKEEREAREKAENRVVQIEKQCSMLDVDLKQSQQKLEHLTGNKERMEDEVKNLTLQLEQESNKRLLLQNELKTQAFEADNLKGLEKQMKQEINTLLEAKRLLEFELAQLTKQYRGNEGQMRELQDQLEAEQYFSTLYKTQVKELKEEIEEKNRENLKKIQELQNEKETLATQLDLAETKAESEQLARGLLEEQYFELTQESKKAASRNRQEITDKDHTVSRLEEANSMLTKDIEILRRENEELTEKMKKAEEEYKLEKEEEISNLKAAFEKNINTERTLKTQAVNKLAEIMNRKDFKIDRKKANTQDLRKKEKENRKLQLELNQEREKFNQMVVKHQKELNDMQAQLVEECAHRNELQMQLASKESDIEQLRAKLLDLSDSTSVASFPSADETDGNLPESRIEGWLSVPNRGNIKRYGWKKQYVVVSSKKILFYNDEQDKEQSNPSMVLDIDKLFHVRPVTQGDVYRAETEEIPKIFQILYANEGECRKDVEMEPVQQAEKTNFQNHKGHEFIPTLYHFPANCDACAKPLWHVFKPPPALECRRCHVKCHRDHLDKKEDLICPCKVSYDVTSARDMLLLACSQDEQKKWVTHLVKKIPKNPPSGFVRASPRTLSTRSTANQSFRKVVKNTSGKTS

Row | Ki (ROCK I (AA 6-553)) [nM] | Ki (PKA) [nM] | Ki (ROCK; [1]) [nM] | Ki (ROCK) [nM] | SMILES
1 | < 500 | < 500 |  |  | O=C(Cc1ccccc1F)Nc1nc(-c2c[nH]c3ncccc23)cs1 [I-3]
2 | < 500 | < 500 |  |  | O=C(Cc1ccc(F)cc1)Nc1nc(-c2c[nH]c3ncccc23)cs1 [I-4]
3 | < 500 | < 500 |  |  | O=C(Cc1ccc(F)cc1F)Nc1nc(-c2c[nH]c3ncccc23)cs1 [I-6]
4 | < 500 | < 500 |  |  | O=C(CCc1ccccc1)Nc1nc(-c2c[nH]c3ncccc23)cs1 [I-7]
5 | < 500 | 500 to 5000 |  |  | CC(C)(C)OC(=O)N1CCC(CCCOc2cccc(CC(=O)Nc3nc(-c4c[nH]c5ncccc45)cs3)c2)CC1 [I-9]
6 | < 500 | < 500 |  |  | CS(=O)(=O)Oc1cccc(CC(=O)Nc2nc(-c3c[nH]c4ncccc34)cs2)c1 [I-10]
7 | < 500 | < 500 |  |  | O=C(Cc1cc2c(cc1Cl)OCO2)Nc1nc(-c2c[nH]c3ncccc23)cs1 [I-13]
8 | < 500 | < 500 |  |  | COc1ccc(CC(=O)Nc2nc(-c3c[nH]c4ncccc34)cs2)c(Cl)c1 [I-18]
9 | < 500 | < 500 |  |  | COc1cccc(CC(=O)Nc2nnc(-c3c[nH]c4ncccc34)s2)c1 [I-21]
10 | < 500 | < 500 |  |  | O=C(Cc1ccc(F)cc1F)Nc1nnc(-c2c[nH]c3ncccc23)s1 [I-22]
11 | < 500 | < 500 |  |  | O=C(Cc1ccccc1F)Nc1nnc(-c2c[nH]c3ncccc23)s1 [I-23]
12 | 500 to 5000 | 500 to 5000 |  |  | c1cnc2[nH]cc(-c3csc(NC4CC4)n3)c2c1 [II-3]
13 | < 500 | < 500 |  |  | O=C(Cc1cccc(S(=O)(=O)NC2CC2)c1)Nc1nc(-c2c[nH]c3ncccc23)cs1 [II-6]
14 | < 500 |  |  |  | COc1cccc(CNC(=O)c2csc(-c3c[nH]c4ncccc34)n2)c1 [II-21]
15 | < 500 |  |  |  | O=C(Cc1cccc(OCCCC2CCNCC2)c1)Nc1nnc(-c2c[nH]c3ncccc23)s1 [II-22]
16 |  | 500 to 5000 | < 500 |  | CC(=O)N(CCCN1CCN(C)CC1)c1nc(-c2c[nH]c3ncccc23)cs1 [II-204]
17 |  | < 500 | < 500 |  | O=C(Cc1cccnc1)Nc1nc(-c2c[nH]c3ncccc23)cs1 [II-205]
18 |  | < 500 | < 500 |  | O=C(Cc1cccnc1)Nc1nc(-c2c[nH]c3ncc(F)cc23)cs1 [II-206]
19 |  | < 500 | < 500 |  | O=C(Nc1nc(-c2c[nH]c3ncccc23)cs1)[C@@H](O)c1ccccc1 [II-207]

Row | Ki (ROCK I (AA 6-553)) [nM] | Ki (PKA) [nM] | Ki (ROCK; [1]) [nM] | Ki (ROCK) [nM] | SMILES
20 |  | < 500 | < 500 |  | COc1cccc(C(O)C(=O)Nc2nc(-c3c[nH]c4ncccc34)cs2)c1 (centres unmarked) [II-208]
21 |  | < 500 | < 500 |  | O=C(Nc1nc(-c2c[nH]c3ncccc23)cs1)C(O)c1ccc(F)cc1F (centres unmarked) [II-209]
22 |  | < 500 | < 500 |  | O=C(Nc1nc(-c2c[nH]c3ncccc23)cs1)[C@H](O)c1ccccc1 [II-210]
23 |  | < 500 | < 500 |  | CS(=O)(=O)Nc1cccc(C(O)C(=O)Nc2nc(-c3c[nH]c4ncccc34)cs2)c1 (centres unmarked) [II-211]
24 |  | < 500 | < 500 |  | Nc1cccc(C(O)C(=O)Nc2nc(-c3c[nH]c4ncccc34)cs2)c1 (centres unmarked) [II-212]
25 |  | < 500 | < 500 |  | NC(C(=O)Nc1nc(-c2c[nH]c3ncccc23)cs1)c1ccc(F)cc1 (centres unmarked) [II-213]
26 |  | < 500 | < 500 |  | N[C@@H](C(=O)Nc1nc(-c2c[nH]c3ncccc23)cs1)c1ccccc1 [II-214]
27 |  | < 500 | < 500 |  | O=C(Cc1ccccn1)Nc1nc(-c2c[nH]c3ncccc23)cs1 [II-215]
28 |  | 500 to 5000 |  | < 500 | CS(=O)(=O)Nc1cccc(CC(=O)Nc2nc(-c3c[nH]c4c3ccc[n+]4[O-])cs2)c1 [II-216]
29 |  | < 500 | < 500 |  | CS(=O)(=O)NCC(=O)Nc1nc(-c2c[nH]c3ncccc23)cs1 [II-217]
30 |  | < 500 | < 500 |  | CCS(=O)(=O)NCC(=O)Nc1nc(-c2c[nH]c3ncccc23)cs1 [II-218]
31 |  | < 500 | < 500 |  | CS(=O)(=O)Nc1cccc(C(N)C(=O)Nc2nc(-c3c[nH]c4ncccc34)cs2)c1 (centres unmarked) [II-219]
32 |  | < 500 | < 500 |  | CC(C)S(=O)(=O)NCC(=O)Nc1nc(-c2c[nH]c3ncccc23)cs1 [II-220]
33 |  | < 500 | < 500 |  | CCS(=O)(=O)C(C)C(=O)Nc1nc(-c2c[nH]c3ncccc23)cs1 (centres unmarked) [II-221]
34 |  | < 500 | < 500 |  | C[C@H](NS(C)(=O)=O)C(=O)Nc1nc(-c2c[nH]c3ncccc23)cs1 [II-222]
35 |  | < 500 | < 500 |  | CC(C)[C@H](NS(C)(=O)=O)C(=O)Nc1nc(-c2c[nH]c3ncccc23)cs1 [II-223]
36 |  | 500 to 5000 | < 500 |  | CCCC(C(=O)Nc1nc(-c2c[nH]c3ncccc23)cs1)S(C)(=O)=O (centres unmarked) [II-224]
37 |  | 500 to 5000 | < 500 |  | CCCC(C(=O)Nc1nc(-c2c[nH]c3ncccc23)cs1)S(=O)(=O)CC (centres unmarked) [II-225]
38 |  | < 500 | < 500 |  | CC(C(=O)Nc1nc(-c2c[nH]c3ncccc23)cs1)S(C)(=O)=O (centres unmarked) [II-226]

Row | Ki (ROCK I (AA 6-553)) [nM] | Ki (PKA) [nM] | Ki (ROCK; [1]) [nM] | Ki (ROCK) [nM] | SMILES
39 |  | < 500 | < 500 |  | CC(C)[C@@H](NS(C)(=O)=O)C(=O)Nc1nc(-c2c[nH]c3ncccc23)cs1 [II-227]
40 |  | < 500 | < 500 |  | C[C@@H](NS(C)(=O)=O)C(=O)Nc1nc(-c2c[nH]c3ncccc23)cs1 [II-228]
41 |  | < 500 | < 500 |  | CS(=O)(=O)N1CCC[C@H]1C(=O)Nc1nc(-c2c[nH]c3ncccc23)cs1 [II-229]
42 |  | < 500 | < 500 |  | CS(=O)(=O)N1CCC[C@@H]1C(=O)Nc1nc(-c2c[nH]c3ncccc23)cs1 [II-230]
43 |  | < 500 | < 500 |  | CN(CC(=O)Nc1nc(-c2c[nH]c3ncccc23)cs1)S(C)(=O)=O [II-231]
44 |  | < 500 | < 500 |  | CS(=O)(=O)N[C@H](COCc1ccccc1)C(=O)Nc1nc(-c2c[nH]c3ncccc23)cs1 [II-232]
45 |  | < 500 | < 500 |  | CS(=O)(=O)N[C@@H](COCc1ccccc1)C(=O)Nc1nc(-c2c[nH]c3ncccc23)cs1 [II-233]
46 |  | 500 to 5000 | 500 to 5000 |  | CCNC(=O)Nc1nc(-c2c[nH]c3ncccc23)cs1 [II-234]
47 |  | 500 to 5000 | 500 to 5000 |  | O=C(NCCO)Nc1nc(-c2c[nH]c3ncccc23)cs1 [II-235]
48 |  | 500 to 5000 | 500 to 5000 |  | O=C(Nc1nc(-c2c[nH]c3ncccc23)cs1)N1CCOCC1 [II-236]
49 |  | 500 to 5000 | 500 to 5000 |  | CN1CCN(C(=O)Nc2nc(-c3c[nH]c4ncccc34)cs2)CC1 [II-237]
50 |  | 500 to 5000 | 500 to 5000 |  | O=C(Nc1nc(-c2c[nH]c3ncccc23)cs1)N1CCCCC1 [II-238]
51 |  | 500 to 5000 | < 500 |  | O=C(Nc1nc(-c2c[nH]c3ncccc23)cs1)NC1CCC(C(=O)O)CC1 (centres unmarked) [II-239]
52 |  | 500 to 5000 | 500 to 5000 |  | CN(C)C(=O)Nc1nc(-c2c[nH]c3ncccc23)cs1 [II-240]
53 |  | 500 to 5000 | 500 to 5000 |  | O=C(Nc1nc(-c2c[nH]c3ncccc23)cs1)N1CCCC1 [II-241]
54 |  | 500 to 5000 | 500 to 5000 |  | CC(CN(C)C)NC(=O)Nc1nc(-c2c[nH]c3ncccc23)cs1 (centres unmarked) [II-242]
55 |  | 500 to 5000 | 500 to 5000 |  | O=C(Nc1nc(-c2c[nH]c3ncccc23)cs1)N1CCNCC1 [II-243]
56 |  | 500 to 5000 | < 500 |  | CC(C)NC(=O)Nc1nc(-c2c[nH]c3ncccc23)cs1 [II-244]
